The first assay concerns Excised Aorta of Rat. As to the kind of experiment: Test with Excised Aorta of Rat: relaxation of lasting contraction following KCl (30 mM) addition. The class given is cell-based, male Sprague Dawley rat. The following applies: rat thoracic aorta rings, 30 mM KCl contraction, 37° C. The method, then:
Test with Excised Aorta of Rat
The thoracic aorta was excised from a male Sprague Dawley rat (450 to 600 g) and cut into 2 mm wide ring preparations. Each preparation was suspended in 10 ml of an organ bath containing a Krebs-Henseleit solution (NaCl:119; KCl:4.8; CaCl2 ·2H2 O: 2.53; KH2 PO4 :1.2; MgSO4 ·7H2 O: 1.2; NaHCO3 : 24.8; glucose: 10 (mM); 37° C.) under a tension of 2 g, and a mixed gas of 95% O2 and 5% CO2 was bubbled therethrough. Isometric contractions of the preparation were recorded by means of an FD pick-up. […] The activity of a test compound to relax a lasting contraction following the KCl addition was evaluated by obtaining a 50% inhibitory concentration (IC50).
The compounds of the present invention obtained in the foregoing Examples and, for comparison, Cromakalim were used as test compounds.
As to `CNC(=O)C1=CC(C)(C)Oc2ccc([N+](=O)[O-])cc21` [Compound 10, N-Methyl-6-nitro-2,2-dimethyl-2H-1-benzopyran-4-carboxamide], the midpoint of inhibition, the IC50, lay at 11 nM.

For the molecule `CCN(CC)C(=O)C1=CC(C)(C)Oc2ccc([N+](=O)[O-])cc21` [Compound 193], the midpoint of inhibition, the IC50, lay at 6000 nM.

`CNC(=O)C1CC(C)(C)Oc2ccc([N+](=O)[O-])cc21` (stereo not shown) [Compound 22, N-Methyl-3,4-dihydro-6-nitro-2,2-dimethyl-2H-1-benzopyran-4-carboxamide] displayed an IC50 of 14 nM.

The molecule `CNC(=S)C1=CC(C)(C)Oc2ccc(C(F)(F)F)cc21` [Compound 104] registered an IC50 of 2.6 nM.

Take `CCCNC(=S)C1=CC(C)(C)Oc2ccc([N+](=O)[O-])cc21` [Compound 115]: the midpoint of inhibition, the IC50, lay at 3 nM.

In the case of `CNC(=O)C1=CC2(CCCCC2)Oc2ccc([N+](=O)[O-])cc21` [Compound 186], the IC50 was determined as 0.042 nM.

As to `CC1(C)Oc2ccc(C#N)cc2[C@@H](N2CCCC2=O)[C@@H]1O` (relative stereo) [Cromakalim, reference compound], the IC50 came out at 180 nM.

The molecule `CCC1(C)C=C(C(=S)NC)c2cc([N+](=O)[O-])ccc2O1` (stereo not shown) [Compound 90] displayed an IC50 of 0.18 nM.

`CNC(=S)C1=CC(C)(C)Oc2ccc(C#N)cc21` [Compound 3, N-Methyl-6-cyano-2,2-dimethyl-2H-1-benzopyran-4-carbothioamide] had an IC50 of 33 nM.

Molecule `CNC(=S)C1=CC2(CCCCC2)Oc2ccc([N+](=O)[O-])cc21` [Compound 91] had an IC50 of 0.14 nM.

As for `CN(C)C(=NC#N)C1=CC(C)(C)Oc2ccc([N+](=O)[O-])cc21` [Compound 11, N^2 -Cyano-N^1,N^1-dimethyl-6-nitro-2,2-dimethyl-2H-1-benzopyran-4-carboxamidine], the IC50 is more than 30000 nM.

In turn, `CNC(=S)C1=CC(C)(C)Oc2ccc([N+](=O)[O-])cc21` [Compound 8, N,2,2-Trimethyl-6-nitro-2H-1-benzopyran-4-carbothioamide] had an IC50 of 1.4 nM.

As to `CNC(=S)C1=CC2(CCCC2)Oc2ccc([N+](=O)[O-])cc21` [Compound 128], it took 0.037 nM to reach half-maximal inhibition (IC50).

The molecule `CNC(=S)C1=CC(C)(C)Oc2ccc(Br)cc21` [Compound 134] yielded an IC50 of 9.3 nM.

Turning to `CCC1(C)C=C(C(=O)NC)c2cc([N+](=O)[O-])ccc2O1` (stereo not shown) [Compound 181], the IC50 is 2.1 nM.

On to `CCNC(=S)C1=CC(C)(C)Oc2ccc([N+](=O)[O-])cc21` [Compound 113], for which the IC50 was 3.7 nM.

Take `CCCNC(=O)C1=CC(C)(C)Oc2ccc([N+](=O)[O-])cc21` [Compound 146]: the IC50 was 5.7 nM.

Take `CN=C(NC#N)C1=CC(C)(C)Oc2ccc([N+](=O)[O-])cc21` [Compound 12, N-Cyano-N'-methyl-6-nitro-2,2-dimethyl-2H-1-benzopyran-4-carboxamidine]: the IC50 is 11 nM.

With `CC1(C)C=C(C(=S)NC2CC2)c2cc([N+](=O)[O-])ccc2O1` [Compound 137], 3.7 nM corresponded to half-maximal inhibition (IC50).

For another assay, the system named is Guinea Pig Tracheal Muscle. As to the kind of experiment: Test with Guinea Pig Tracheal Muscle: relaxation of spontaneous tension. It counts as cell-based, male Hartley guinea pig. Particulars: Cavia porcellus; concentration exhibiting 50% relaxing activity, relaxing activity of 1 mM aminophylline taken as 100%, 37° C. How it is done:
Test with Guinea Pig Tracheal Muscle
The trachea was excised from a male Hartley guinea pig (450 to 550 g) to make chain preparations. The preparation was suspended in a bath containing the same Krebs-Henseleit solution as used in Test Example 1 (37° C.) through which a mixed gas of 95% O2 and 5% CO2 was bubbled. Isometric contractions of the preparation were recorded under a tension of 1 g.
The same test compounds as used in Test Example 1 were used.
On to `CNC(=O)C1=CC(C)(C)Oc2ccc([N+](=O)[O-])cc21` [Compound 10, N-Methyl-6-nitro-2,2-dimethyl-2H-1-benzopyran-4-carboxamide], for which the IC50 came out at 33 nM.

The molecule `CCN(CC)C(=O)C1=CC(C)(C)Oc2ccc([N+](=O)[O-])cc21` [Compound 193] gave an IC50 of 57 nM.

Consider `CNC(=O)C1CC(C)(C)Oc2ccc([N+](=O)[O-])cc21` (stereo not shown) [Compound 22, N-Methyl-3,4-dihydro-6-nitro-2,2-dimethyl-2H-1-benzopyran-4-carboxamide], for which the IC50 was found to be 36 nM.

In turn, `CNC(=S)C1=CC(C)(C)Oc2ccc(C(F)(F)F)cc21` [Compound 104] showed an IC50 of 37 nM.

For `CCCNC(=S)C1=CC(C)(C)Oc2ccc([N+](=O)[O-])cc21` [Compound 115], the IC50 worked out at 41 nM.

Consider `CNC(=O)C1=CC2(CCCCC2)Oc2ccc([N+](=O)[O-])cc21` [Compound 186], for which half-maximal inhibition (IC50) was put at 11 nM.

The molecule `CC1(C)Oc2ccc(C#N)cc2[C@@H](N2CCCC2=O)[C@@H]1O` (relative stereo) [Cromakalim, reference compound] returned a half-inhibitory concentration (IC50) of 790 nM.

As to `CCC1(C)C=C(C(=S)NC)c2cc([N+](=O)[O-])ccc2O1` (stereo not shown) [Compound 90], the concentration for half-maximal inhibition (IC50) came to 2.9 nM.

The molecule `CNC(=S)C1=CC(C)(C)Oc2ccc(C#N)cc21` [Compound 3, N-Methyl-6-cyano-2,2-dimethyl-2H-1-benzopyran-4-carbothioamide] showed an IC50 of 200 nM.

For the molecule `CNC(=S)C1=CC2(CCCCC2)Oc2ccc([N+](=O)[O-])cc21` [Compound 91], half-maximal inhibition (IC50) was put at 38 nM.

Take `CN(C)C(=NC#N)C1=CC(C)(C)Oc2ccc([N+](=O)[O-])cc21` [Compound 11, N^2 -Cyano-N^1,N^1-dimethyl-6-nitro-2,2-dimethyl-2H-1-benzopyran-4-carboxamidine]: the IC50 amounted to 54 nM.

With `CNC(=S)C1=CC(C)(C)Oc2ccc([N+](=O)[O-])cc21` [Compound 8, N,2,2-Trimethyl-6-nitro-2H-1-benzopyran-4-carbothioamide], the IC50 was 6.3 nM.

Molecule `CNC(=S)C1=CC2(CCCC2)Oc2ccc([N+](=O)[O-])cc21` [Compound 128] showed an IC50 of 50 nM.

For the molecule `CNC(=S)C1=CC(C)(C)Oc2ccc(Br)cc21` [Compound 134], the IC50 was 75 nM.

Molecule `CCC1(C)C=C(C(=O)NC)c2cc([N+](=O)[O-])ccc2O1` (stereo not shown) [Compound 181] returned an IC50 of 16 nM.

In turn, `CCNC(=S)C1=CC(C)(C)Oc2ccc([N+](=O)[O-])cc21` [Compound 113] showed an IC50 of 11 nM.

Molecule `CCCNC(=O)C1=CC(C)(C)Oc2ccc([N+](=O)[O-])cc21` [Compound 146] registered a 50% inhibitory concentration (IC50) of 56 nM.

`CN=C(NC#N)C1=CC(C)(C)Oc2ccc([N+](=O)[O-])cc21` [Compound 12, N-Cyano-N'-methyl-6-nitro-2,2-dimethyl-2H-1-benzopyran-4-carboxamidine] registered an IC50 of 23 nM.

`CC1(C)C=C(C(=S)NC2CC2)c2cc([N+](=O)[O-])ccc2O1` [Compound 137] gave an IC50 of 22 nM.

Another assay deals with histamine-induced increase in respiratory tract inner pressure. As to the kind of experiment: Study on Antiasthmatic Activity: inhibition of histamine-induced increase in respiratory tract inner pressure. The class given is in vivo, male Hartley guinea pig. The following applies: Cavia porcellus; dose for 50% inhibition of histamine-induced increase in respiratory tract inner pressure; intraduodenal, anesthetized guinea pig. The method, then:
Study on Antiasthmatic Activity
A mid-line incision was made in the neck of a male Hartley guinea pig (600 to 800 g, CRJ) under anesthesia with pentobarbitar (40 mg/kg, i.p.). The trachea, the left […], and the left carotid artery were exposed, and a cannula was inserted into each of them. The inner pressure of the respiratory tract was measured while applying artificial respiration through the tracheal cannula. The blood pressure was measured through the arterial cannula, and the heart rate was determined from the pulse. Pentobarbital for anesthesia maintenance was continuously administered through the venous cannula. A mid-line incision was made on the abdomen to expose the duodenum, and a cannula for intraduodenal administration was inserted thereinto. After the postoperative convalescence of 30 to 60 minutes, histamine (5 to 10 μg/kg) was intravenously administered every 10 minutes. After it was confirmed that a respiratory tract inner pressure rise reaction was stably obtained, a test compound in the form of a 0.3% CMC suspension was intraduodenally administered. The histamine dose was so selected that the respiratory tract inner pressure might rise to 20 to 40 cmH2 O after every lntravenous administration. After administration of the test compound, intravenous administration of histamine at 10 minutes intervals was continued. The histamine-induced increase in respiratory tract inner pressure after the administration of the test compound was compared with that before the administration.
Molecule `CNC(=O)C1=CC(C)(C)Oc2ccc([N+](=O)[O-])cc21` [Compound 10, N-Methyl-6-nitro-2,2-dimethyl-2H-1-benzopyran-4-carboxamide] displayed an ED50 of less than 0.1 mg/kg.

`CCN(CC)C(=O)C1=CC(C)(C)Oc2ccc([N+](=O)[O-])cc21` [Compound 193] registered an ED50 of less than 0.3 mg/kg.

For `CNC(=O)C1CC(C)(C)Oc2ccc([N+](=O)[O-])cc21` (stereo not shown) [Compound 22, N-Methyl-3,4-dihydro-6-nitro-2,2-dimethyl-2H-1-benzopyran-4-carboxamide], the ED50 was less than 0.3 mg/kg.

In turn, `CC1(C)Oc2ccc(C#N)cc2[C@@H](N2CCCC2=O)[C@@H]1O` (relative stereo) [Cromakalim, reference compound] had an ED50 of 1 to 3 mg/kg.

As for `CN(C)C(=NC#N)C1=CC(C)(C)Oc2ccc([N+](=O)[O-])cc21` [Compound 11, N^2 -Cyano-N^1,N^1-dimethyl-6-nitro-2,2-dimethyl-2H-1-benzopyran-4-carboxamidine], the ED50 turned out to be 0.1 mg/kg.

In turn, `CNC(=S)C1=CC(C)(C)Oc2ccc([N+](=O)[O-])cc21` [Compound 8, N,2,2-Trimethyl-6-nitro-2H-1-benzopyran-4-carbothioamide] came in with a median effective dose (ED50) of 0.1 to 0.3 mg/kg.

Turning to `CCC1(C)C=C(C(=O)NC)c2cc([N+](=O)[O-])ccc2O1` (stereo not shown) [Compound 181], the ED50 fell in the range of 0.1 to 0.3 mg/kg.

`CN=C(NC#N)C1=CC(C)(C)Oc2ccc([N+](=O)[O-])cc21` [Compound 12, N-Cyano-N'-methyl-6-nitro-2,2-dimethyl-2H-1-benzopyran-4-carboxamidine] returned an ED50 of 0.1 to 0.3 mg/kg.

The term IC50 denotes the point on the concentration scale where inhibition reaches its midpoint. Lower therefore signals inhibition by little substance. The ED50 is the dose that gives a 50% effect, or the effect in half of the subjects. The low end stands for greater potency, the high end for weaker potency.

The record behind these values is patent publication US5412117A, “Benzopyran derivatives” (Chugai Seiyaku Kabushiki Kaisha, priority 1990, dated 1995).
